Measured values reported in patent publication US9765026B2, “Forms of apremilast and the process of making the same” (ScinoPharm Taiwan, Ltd., priority 2015, dated 2017).

Legend:
[1] = Stability at 40° C./75% RH; format: physicochemical; details: 40° C./75% RH for 4 weeks
Experimental: In comparison with the form F disclosed in U.S. Pat. No. 8,093,293, Form 3 and Form 4 in the present disclosure needs less process time to be prepared and is stable even at 40° C./75% RH for 4 weeks.

[2] = Dynamic Vapor Sorption (DVS) analysis of moisture uptake and release; format: physicochemical; details: for hygroscopicity (conclusion from DVS): cycling between 0% and 90% RH
Experimental: Dynamic Vapor Sorption (DVS)
The sample was placed into the DVS sample pan and dried under a stream of dry nitrogen at 25° C. (0% RH). The moisture was gradually introduced into the system with a 10% RH increment up to 90% RH and the humidity was then decreased in a similar trend for desorption phase. The sorption and desorption data were collected with equilibration set to dm/dt 0.004%/min for 5 min/step. The minimum and maximum time for each step were set to 10 and 360 min. Two sorption/desorption cycles were performed.

Row | Compound | stability on storage [1] | weight gained ([2]; at 10% RH (FIG. 12)) | hygroscopicity (conclusion from DVS) [2] | change in sample weight ([2]; humidity increased from 10% to 90% RH (FIG. 12)) | water content ([2]; RH 90% (FIG. 5B)) | maximum moisture uptake ([2]; cycling between 0% and 90% RH (FIG. 15))
1 | CCOc1cc([C@@H](CS(C)(=O)=O)N2C(=O)c3cccc(NC(C)=O)c3C2=O)ccc1OC [Form 3, apremilast] | stable | – | – | – | – | –
2 | CCOc1cc([C@@H](CS(C)(=O)=O)N2C(=O)c3cccc(NC(C)=O)c3C2=O)ccc1OC [Form 4, apremilast] | stable | about 3.3% | non-hygroscopic | no significant change | – | –
3 | CCOc1cc([C@@H](CS(C)(=O)=O)N2C(=O)c3cccc(NC(C)=O)c3C2=O)ccc1OC [Form II, apremilast] | – | – | hygroscopic | – | 4.5% | –
4 | CCOc1cc([C@@H](CS(C)(=O)=O)N2C(=O)c3cccc(NC(C)=O)c3C2=O)ccc1OC [amorphous apremilast, apremilast] | – | – | hygroscopic | – | – | about 2.5 % of the total mass of the sample
